# Test results: PMC11129182, “Development of Inhibitors, Probes, and PROTAC Provides a Complete Toolbox to Study PARK7 in the Living Cell” (Journal of Medicinal Chemistry, 2024)
# Biological target: T1, PARK7 (Homo sapiens, UniProt Q99497)
# T1 sequence (Q99497 1-189): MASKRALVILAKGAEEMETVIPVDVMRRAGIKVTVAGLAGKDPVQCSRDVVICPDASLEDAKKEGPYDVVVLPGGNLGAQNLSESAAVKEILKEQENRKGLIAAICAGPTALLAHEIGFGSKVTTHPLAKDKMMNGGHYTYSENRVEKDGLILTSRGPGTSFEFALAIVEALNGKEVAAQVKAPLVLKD
# Test: High-throughput screen of the crude compound library, PARK7 fluorescence polarization (FP) assay with FP reagent JYQ-107
# Type: biochemical
# Details: 1.25 µM, crude compound library, FP reagent JYQ-107; read-out: HTS FP assay %Inhibition (1.25 µM)
# From the text: Therefore, taking JYQ-88 as a starting point, we conducted an optimization to further improve the molecule in terms of inhibitory potency, specificity, and cellular uptake. […] First, a small tailored library was designed and synthesized to investigate whether the introduction of larger, hydrophilic substituents on JYQ-88 would enhance the interaction with the PARK7 pocket. […] The second approach involved the generation of a compound library containing diverse substituents at the azidomethyl position. […] We next performed a high-throughput screen of this crude compound library using our in-house developed PARK7 fluorescence polarization (FP) assay.[15]
row,Structure (SMILES),inhibition at 1.25 µM [%]
1,Cn1c(=O)c2c(ncn2CC(=O)N2CCc3nc(NC(=O)[C@@H]4CCN(C#N)C4)sc3C2)n(C)c1=O [compound 405],67.9
2,N#CN1CC[C@@H](C(=O)Nc2nc3c(s2)CN(C(=O)c2ccc4cc5ccccc5cc4c2)CC3)C1 [compound 455],79.5
3,N#CN1CC[C@@H](C(=O)Nc2nc3c(s2)CN(C(=O)c2cnc(-c4cccnc4)s2)CC3)C1 [compound 368],69.2
4,N#CN1CC[C@@H](C(=O)Nc2nc3c(s2)CN(C(=O)c2cc(-c4cccc(Cl)c4)no2)CC3)C1 [compound 453],52.8
5,N#CN1CC[C@@H](C(=O)Nc2nc3c(s2)CN(C(=O)c2cnn(CC4CCC4)c2)CC3)C1 [compound 372],81.6
6,CCn1ccc(-c2cc(C(=O)N3CCc4nc(NC(=O)[C@@H]5CCN(C#N)C5)sc4C3)no2)n1 [compound 365],78.3
7,CCCCNc1ccc(C(=O)N2CCc3nc(NC(=O)[C@@H]4CCN(C#N)C4)sc3C2)cc1 [compound 434],81.3
8,N#CN1CC[C@@H](C(=O)Nc2nc3c(s2)CN(C(=O)CN2CCOCC2)CC3)C1 [compound 461],72.7
9,CC(=O)CCCC(=O)N1CCc2nc(NC(=O)[C@@H]3CCN(C#N)C3)sc2C1 [compound 431],72.4
10,N#CCC(=O)N1CCc2nc(NC(=O)[C@@H]3CCN(C#N)C3)sc2C1 [compound 457],49.3
11,N#CN1CC[C@@H](C(=O)Nc2nc3c(s2)CN(C(=O)c2ncsc2Cc2ccccc2)CC3)C1 [compound 361],82.9
12,N#CN1CC[C@@H](C(=O)Nc2nc3c(s2)CN(C(=O)c2cc([N+](=O)[O-])ccc2Br)CC3)C1 [compound 441],81.4
13,CN1CCN(CC(=O)N2CCc3nc(NC(=O)[C@@H]4CCN(C#N)C4)sc3C2)CC1 [compound 463],67.3

# Same assay, conditions: 1.25 µM, crude compound library; read-out: HTS FP assay %Inhibition (1.25 µM)
row,Structure (SMILES),inhibition at 1.25 µM [%]
1,N#CN1CC[C@@H](C(=O)Nc2nc3c(s2)CN(C(=O)c2ccc(CN4CCOCC4)cc2)CC3)C1 [compound 103],86.4
2,CCS(=O)(=O)N1CCC(C(=O)N2CCc3nc(NC(=O)[C@@H]4CCN(C#N)C4)sc3C2)(c2ccccc2)CC1 [compound 150],62.5
3,N#CN1CC[C@@H](C(=O)Nc2nc3c(s2)CN(C(=O)Cc2ccc(S(=O)(=O)N4CCCC4)s2)CC3)C1 [compound 15],69.5
4,N#CN1CC[C@@H](C(=O)Nc2nc3c(s2)CN(C(=O)c2nc(OCC4CC4)ccc2Cl)CC3)C1 [compound 238],53.7
5,N#CN1CC[C@@H](C(=O)Nc2nc3c(s2)CN(C(=O)c2cc(N4CCOCC4)ccn2)CC3)C1 [compound 201],72.2
6,N#CN1CC[C@@H](C(=O)Nc2nc3c(s2)CN(C(=O)C2(NS(=O)(=O)C=Cc4ccccc4)CCCC2)CC3)C1 [compound 251],66.6
7,N#CN1CC[C@@H](C(=O)Nc2nc3c(s2)CN(C(=O)Cc2cccc(OCc4cccnc4)c2)CC3)C1 [compound 118],83.7
8,N#CN1CC[C@@H](C(=O)Nc2nc3c(s2)CN(C(=O)c2noc(Cc4ccccc4F)n2)CC3)C1 [compound 37],73.8
9,N#CN1CC[C@@H](C(=O)Nc2nc3c(s2)CN(C(=O)[C@@H]2CCCO[C@H]2c2ccccc2)CC3)C1 [compound 287],64.1
10,N#CN1CC[C@@H](C(=O)Nc2nc3c(s2)CN(C(=O)C2COCCN2C(=O)OCc2ccccc2)CC3)C1 (stereo partly shown) [compound 181],72.7
11,CC(C(=O)N1CCc2nc(NC(=O)[C@@H]3CCN(C#N)C3)sc2C1)n1nc(C(F)(F)F)cc1C1CC1 (stereo partly shown) [compound 143],64.1
12,CN1C(=O)C[C@@H](C(=O)N2CCc3nc(NC(=O)[C@@H]4CCN(C#N)C4)sc3C2)[C@@H]1c1cccnc1 [compound 222],63.8
13,N#CN1CC[C@@H](C(=O)Nc2nc3c(s2)CN(C(=O)C(=O)N2CCN(c4ccccc4)CC2)CC3)C1 [compound 177],78.6
14,COCC1CCN(c2ccc(C(=O)N3CCc4nc(NC(=O)[C@@H]5CCN(C#N)C5)sc4C3)cc2)C1 (stereo partly shown) [compound 229],72.8
15,N#CN1CC[C@@H](C(=O)Nc2nc3c(s2)CN(C(=O)c2cc(Cn4cc(Cl)cn4)cs2)CC3)C1 [compound 191],86.7
16,N#CN1CC[C@@H](C(=O)Nc2nc3c(s2)CN(C(=O)Cc2csc(NS(=O)(=O)c4ccccc4)n2)CC3)C1 [compound 339],82.7
17,Cc1noc(-c2ccc(C(=O)N3CCc4nc(NC(=O)[C@@H]5CCN(C#N)C5)sc4C3)cc2)n1 [compound 244],58.5
18,N#CN1CC[C@@H](C(=O)Nc2nc3c(s2)CN(C(=O)c2cccc(C(=O)N4CCCC4)n2)CC3)C1 [compound 286],81.9
19,CN1CCN(C(=O)c2ccccc2C(=O)N2CCc3nc(NC(=O)[C@@H]4CCN(C#N)C4)sc3C2)CC1 [compound 129],71.3
20,N#CN1CC[C@@H](C(=O)Nc2nc3c(s2)CN(C(=O)c2cc(Cl)nc(N4CCCC4)c2)CC3)C1 [compound 160],74.9
21,N#CN1CC[C@@H](C(=O)Nc2nc3c(s2)CN(C(=O)C2CC(=O)N(CCN4CCOCC4)C2)CC3)C1 (stereo partly shown) [compound 117],71.4
22,N#CN1CC[C@@H](C(=O)Nc2nc3c(s2)CN(C(=O)c2cc(-c4ccc(Br)cc4)ns2)CC3)C1 [compound 81],80.2
23,N#CN1CC[C@@H](C(=O)Nc2nc3c(s2)CN(C(=O)C(F)(F)n2cc(-c4ccccc4)nn2)CC3)C1 [compound 178],45.6
24,N#CN1CC[C@@H](C(=O)Nc2nc3c(s2)CN(C(=O)c2ccc(-c4nnco4)cc2)CC3)C1 [compound 301],85.9

row,Structure (SMILES),inhibition at 1.25 µM [%]
1,CN(Cc1ccccc1)S(=O)(=O)c1ccc(C(=O)N2CCc3nc(NC(=O)[C@@H]4CCN(C#N)C4)sc3C2)cc1 [compound 183],65.5
2,Cc1cc(C)c(C(=O)N2CCc3nc(NC(=O)[C@@H]4CCN(C#N)C4)sc3C2)c(OCC2CCCCC2)n1 [compound 47],75.4
3,Cc1noc(C)c1Cc1ccc(C(=O)N2CCc3nc(NC(=O)[C@@H]4CCN(C#N)C4)sc3C2)o1 [compound 95],81.3
4,CNS(=O)(=O)c1ccc(-c2ccc(Cl)c(Cl)c2)c(C(=O)N2CCc3nc(NC(=O)[C@@H]4CCN(C#N)C4)sc3C2)c1 [compound 305],74.8
5,N#CN1CC[C@@H](C(=O)Nc2nc3c(s2)CN(C(=O)c2occc2-c2ccccc2)CC3)C1 [compound 271],81.3
6,N#CN1CC[C@@H](C(=O)Nc2nc3c(s2)CN(C(=O)c2cc(-c4cccc(Cl)c4)no2)CC3)C1 [compound 245],10.9
7,N#CN1CC[C@@H](C(=O)Nc2nc3c(s2)CN(C(=O)c2ccc(S(=O)(=O)Nc4cccc(Cl)c4F)o2)CC3)C1 [compound 205],72.5
8,N#CN1CC[C@@H](C(=O)Nc2nc3c(s2)CN(C(=O)c2ccn(-c4ccc(C(F)(F)F)cn4)n2)CC3)C1 [compound 235],67.4
9,N#CN1CC[C@@H](C(=O)Nc2nc3c(s2)CN(C(=O)c2csc(-c4ncccn4)n2)CC3)C1 [compound 27],80.8
10,N#CN1CC[C@@H](C(=O)Nc2nc3c(s2)CN(C(=O)C(OC2CCOCC2)c2ccccc2)CC3)C1 (stereo partly shown) [compound 323],67.7
11,N#CN1CC[C@@H](C(=O)Nc2nc3c(s2)CN(C(=O)c2csc(-c4cnccn4)n2)CC3)C1 [compound 58],74.4
12,CN(Cc1cccnc1)S(=O)(=O)c1cc(C(=O)N2CCc3nc(NC(=O)[C@@H]4CCN(C#N)C4)sc3C2)n(C)c1 [compound 119],71.9
13,N#CN1CC[C@@H](C(=O)Nc2nc3c(s2)CN(C(=O)c2cc(S(=O)(=O)Nc4nccs4)ccc2F)CC3)C1 [compound 321],81.4
14,CCOc1oc(-c2ccco2)nc1C(=O)N1CCc2nc(NC(=O)[C@@H]3CCN(C#N)C3)sc2C1 [compound 246],82.7
15,Cn1cc(S(=O)(=O)NCc2ccco2)cc1C(=O)N1CCc2nc(NC(=O)[C@@H]3CCN(C#N)C3)sc2C1 [compound 73],82.4
16,N#CN1CC[C@@H](C(=O)Nc2nc3c(s2)CN(C(=O)Cc2coc(-c4ccccc4)n2)CC3)C1 [compound 52],78.3
17,Cc1cc(NS(=O)(=O)c2cccc(C(=O)N3CCc4nc(NC(=O)[C@@H]5CCN(C#N)C5)sc4C3)c2)no1 [compound 96],77.9
18,Cn1cc(-c2ocnc2C(=O)N2CCc3nc(NC(=O)[C@@H]4CCN(C#N)C4)sc3C2)cn1 [compound 18],60.9
19,N#CN1CC[C@@H](C(=O)Nc2nc3c(s2)CN(C(=O)c2ccc(=O)n(Cc4ccccc4)n2)CC3)C1 [compound 127],83.8
20,Cc1nc(-c2c[nH]c(C(=O)N3CCc4nc(NC(=O)[C@@H]5CCN(C#N)C5)sc4C3)c2)cs1 [compound 161],86.4
21,Cc1onc(-c2ccccn2)c1C(=O)N1CCc2nc(NC(=O)[C@@H]3CCN(C#N)C3)sc2C1 [compound 176],68.5
22,N#CN1CC[C@@H](C(=O)Nc2nc3c(s2)CN(C(=O)c2ccc(N4CCCCCC4)nc2)CC3)C1 [compound 261],84.5
23,N#CN1CC[C@@H](C(=O)Nc2nc3c(s2)CN(C(=O)c2ccc(-c4cccs4)[nH]c2=O)CC3)C1 [compound 200],72.4

# Same assay, conditions: read-out: HTS FP assay %Inhibition (1.25 µM)
row,Structure (SMILES),inhibition at 1.25 µM [%]
1,CC(C)(C)OC(=O)N[C@@H](Cc1cn(-c2ccc([N+](=O)[O-])cc2[N+](=O)[O-])cn1)C(=O)N1CCc2nc(NC(=O)[C@@H]3CCN(C#N)C3)sc2C1 [compound 409],75.4
